Measured values published in US20260256741A1, “ANTICANCER MALEIMIDE DERIVATIVES FOR USE WITH IMMUNE CHECKPOINT BLOCKADE” (BROWN UNIVERSITY, priority 2022, published 2026).

Experiments:
Format in all cases: cell-based, human
HT-29 cells = assay: Microarray gene expression analysis, HT-29
Protocol: A total of 0.5×10^6 tumor cells (HCT-116, HT-29, KM12C) were plated in a 6-well plate and allowed to adhere overnight before 24-hour treatment as indicated. 1×10^6 immune cells (NK92, TALL-104) were plated and treated with elraglusib as indicated for 24 hours. RNA was isolated from cell pellets in batches of 6 using an RNeasy Plus Mini Kit (Cat #74134, Qiagen, Hilden, Germany). Acceptable RNA concentration and quality were verified with Nanodrop and Bioanalyzer measurements. GeneChip™ Human Transcriptome Array 2.0 assays were conducted according to manufacturer instructions in two batches using randomized samples to limit batch effects (Cat #902162, Applied Biosystems, Waltham, MA, USA). Applied Biosystems Transcriptomic Analysis Console (TAC) software (RRID: SCR_016519) was used to calculate fold changes in gene expression relative to the untreated control cells. Values were considered statistically significant for p values <0.05.

NK-92 cells = assay: 10x single-cell sequencing, NK-92; conditions: 1 μM, 24 hours vs DMSO
Protocol: Single cells were captured and 3′ single-cell gene expression libraries were conducted (Next GEM v3.1) using the 10× Genomics Chromium system by SingulOmics (SingulOmics, New York, NY, USA). Gene expression libraries were sequenced with ~200 million PE150 reads per sample on Illumina (RRID: SCR_016387) NovaSeq (Illumina, Inc., San Diego, CA, USA). After sequencing clean reads were then analyzed with human reference genome GRCh38 using Cell Ranger v6.1.2 ([RRID: SCR_017344],10× Genomics, Pleasanton, CA, USA). Data were analyzed and visualized using Loupe Browser ([RRID: SCR_018555], 10× Genomics, Pleasanton, CA, USA).

HCT-116 CRC cells = assay: Western blot analysis of HCT-116 CRC cells
Protocol: Recombinant Human TNF-α (Cat #300-01A, PeproTech, Rocky Hill, NJ, USA) and Recombinant Human IFN-γ (Cat #300-02, Peprotech, Rocky Hill, NJ, USA) were purchased for use in western blot analysis while rhTRAIL was generated in-house. Kim et al., J Biol Chem., 279(38):40044-52 (2004).
Cells were plated in a 6-well plate and incubated overnight before the spent media was replaced with drugged media. Drug treatment lasted for indicated durations. Protein was extracted using radioimmunoprecipitation (RIPA) assay buffer (Cat #R0278, Sigma-Aldrich, St. Louis, MO) containing cOmplete™, Mini, EDTA-free Protease Inhibitor Cocktail (Cat #4693159001, Roche, Basel, Switzerland) from sub-confluent cells. Denaturing sample buffer was added, samples were boiled at 95 degrees for 10 minutes, and an equal amount of protein lysate was electrophoresed through NuPAGE™ 4 to 12%, Bis-Tris, 1.5 mm, Mini Protein Gels (Invitrogen, Waltham, MA) then transferred to PVDF membranes. The PVDF membrane was blocked with 5% non-fat milk (Sigma-Aldrich, St. Louis, MO) in 1×TTBS. Primary antibodies were incubated with the transferred PVDF membrane in blocking buffer at 4° C. overnight. Secondary antibodies used included Goat anti-Rabbit IgG (H+L) Secondary Antibody, HRP (Cat #31460, Invitrogen, Waltham, MA), and Goat anti-Mouse IgG (H+L) Secondary Antibody, HRP (Cat #31430, Invitrogen, Waltham, MA). Signal was detected using Pierce™ ECL Western Blotting Substrate (Cat #32106, Thermo Scientific, Waltham, MA, USA) and a Syngene Imaging System (RRID: SCR_015770).

[1] = test system: CRC (HCT-116, HT-29) and TALL-104 cells; assay: Pyroptotic events in 40x co-culture images
Protocol: (§1) 5000 HT-29 GFP+ or HCT 116 GFP+ cells were plated per well in a clear-bottom, black-walled 96-well tissue culture plate and were allowed to adhere overnight. Cells were subsequently treated with DMSO, 5 μM elraglusib, and/or 5000 TALL-104 or NK-92 cells (for an effector-to-tumor ratio of 1:1) for 48 hours. Nine images were taken per well at 10× magnification using a Molecular Devices ImageXpress® Confocal HT.ai High-Content Imaging System and quantified for the number of GFP+ objects using the MetaXpress (RRID: SCR_016654) software (Molecular Devices, San Jose, CA, USA). 40× Images were also taken at 24 hours for representative images of cellular morphology changes. Statistical analysis was done using GraphPad Prism 9 (RRID: SCR_002798).

HCT 116 GFP+ cells = assay: Single-color GFP+ immune cell co-culture, HCT 116; conditions: 48 hours
Protocol: 50,000 HT-29 or HCT 116 cells were seeded in a 12-well tissue culture plate and allowed to adhere overnight. They were then transduced with lentivirus containing the plasmid pLenti_CMV_GFP_Hygro [pLenti CMV GFP Hygro (656-4) was a gift from Eric Campeau & Paul Kaufman (Addgene viral prep #17446-LV; RRID: Addgene_17446)] at a multiplicity of infection of 10 with 8 μg/mL polybrene (hexadimethrine bromide [Cat #107689, Sigma Aldrich, St. Louis, MO, USA) for 24 hours before washing with PBS and replacing with fresh medium (49). The cells were then sorted for GFP-positivity using a BD FACSAria™ III Cell Sorter (RRID: SCR_016695).
as §1

[2] = especially at later timepoints (48, 72 hr)

Cn1cc(C2=C(c3coc4ccc(F)cc34)C(=O)NC2=O)c2cc3c(cc21)OCO3 [elraglusib, 3-(5-fluorobenzofuran-3-yl)-4-(5-methyl-5H-[1,3]dioxolo[4,5-f]indol-7-yl)-1H-pyrrole-2,5-dione]
NCR3LG1 (B7-H6) gene expression fold change (HT-29 cells; 24 hours vs DMSO): 1.78 FC | downregulated genes in VEGFA-VEGFR2 signaling pathway (HT-29 cells; 24 hours vs DMSO): 37 | differentially expressed genes post-treatment (HT-29 cells; IC-50 concentration (1 μM), 24 hours, FC cutoff >1.5, <−1.5, p<0.05): 2,307 | immune cell activation marker CD69 expression (NK-92 cells): increase | immune cell attractant CCL4 expression (NK-92 cells): increase | immunosuppressive marker CHI3L1 expression (NK-92 cells): decrease | NF-κB p65 expression (HCT-116 CRC cells; as the 0-72 hour time-course progressed): decreased expression | PD-L1 expression (HCT-116 CRC cells; as the treatment duration increased (0-72 hours)): increases in PD-L1 expression | Mcl-1 protein expression (HCT-116 CRC cells; by the 24-hour timepoint): marked decreases in protein expression | Bcl-2 protein expression (HCT-116 CRC cells; [2]): decreases in protein expression | Survivin protein expression (HCT-116 CRC cells; [2]): decreases in protein expression | cleaved PARP (cPARP) (HCT-116 CRC cells; low dose as in co-culture assays, until the 48-hour timepoint of 72-hour timecourse): little to no cleaved PARP | pyroptotic events ([1]; co-culture of CRC and TALL-104 cells with 5 μM elraglusib): significant increase in pyroptotic events | pyroptotic events ([1]; drug-only condition, no immune cells): did not observe any pyroptotic events | tumor cell death (HCT 116 GFP+ cells; 5 μM elraglusib and NK-92 cells vs drug-only or immune cell-only): increased tumor cell death | GFP+ cells per low-powered field (HCT 116 GFP+ cells; 5 μM elraglusib only vs DMSO only control): significant decrease | number of GFP+ cells per field (HCT 116 GFP+ cells; TALL-104 and 5 μM elraglusib vs TALL-104 only): significant decrease
